# Results published in ChEMBL document CHEMBL5291721, “A preclinical secondary pharmacology resource illuminates target-adverse drug reaction associations of marketed drugs” (Nat Commun, 2023).
# Key:
# [1] = molecular target: Sodium-dependent dopamine transporter (Homo sapiens, UniProt Q01959)
# [2] = molecular target: T1, Amine oxidase [flavin-containing] A (Homo sapiens, UniProt P21397); assay type: functional
# T1 sequence (P21397 whole entry): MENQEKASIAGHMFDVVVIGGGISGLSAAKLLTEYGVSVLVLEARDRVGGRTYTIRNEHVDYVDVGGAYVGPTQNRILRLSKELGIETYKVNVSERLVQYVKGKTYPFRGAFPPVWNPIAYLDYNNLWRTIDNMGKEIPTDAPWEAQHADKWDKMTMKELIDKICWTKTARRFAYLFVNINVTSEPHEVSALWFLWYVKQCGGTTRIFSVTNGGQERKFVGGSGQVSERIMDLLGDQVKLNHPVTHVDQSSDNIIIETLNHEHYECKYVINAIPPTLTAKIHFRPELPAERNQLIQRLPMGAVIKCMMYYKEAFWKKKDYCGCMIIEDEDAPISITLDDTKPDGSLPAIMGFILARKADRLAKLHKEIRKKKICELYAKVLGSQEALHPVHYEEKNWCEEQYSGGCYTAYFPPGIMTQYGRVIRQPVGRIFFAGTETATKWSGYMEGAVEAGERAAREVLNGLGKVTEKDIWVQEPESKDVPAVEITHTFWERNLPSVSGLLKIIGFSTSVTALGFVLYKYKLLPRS
# Prothrombin = Prothrombin (Homo sapiens, UniProt P00734); assay type: functional
# [3] = molecular target: T2, Muscarinic acetylcholine receptor M2 (Homo sapiens, UniProt P08172)
# T2 sequence (P08172 whole entry): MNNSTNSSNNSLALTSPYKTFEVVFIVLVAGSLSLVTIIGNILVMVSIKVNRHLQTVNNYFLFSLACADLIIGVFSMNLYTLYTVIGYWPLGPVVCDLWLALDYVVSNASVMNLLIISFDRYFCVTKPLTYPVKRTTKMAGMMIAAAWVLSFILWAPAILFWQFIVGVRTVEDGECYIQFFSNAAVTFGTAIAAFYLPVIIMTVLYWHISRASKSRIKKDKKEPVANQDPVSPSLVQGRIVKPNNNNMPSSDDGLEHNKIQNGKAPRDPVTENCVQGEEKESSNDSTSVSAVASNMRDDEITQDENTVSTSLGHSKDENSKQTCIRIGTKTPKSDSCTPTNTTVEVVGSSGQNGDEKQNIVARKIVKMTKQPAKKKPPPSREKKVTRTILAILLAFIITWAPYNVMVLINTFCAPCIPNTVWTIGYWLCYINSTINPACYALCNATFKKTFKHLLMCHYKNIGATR
# [4] = molecular target: 5-hydroxytryptamine receptor 2B (Homo sapiens, UniProt P41595); assay type: functional, cell-based
# 5-hydroxytryptamine receptor 2B, sequence (P41595 whole entry): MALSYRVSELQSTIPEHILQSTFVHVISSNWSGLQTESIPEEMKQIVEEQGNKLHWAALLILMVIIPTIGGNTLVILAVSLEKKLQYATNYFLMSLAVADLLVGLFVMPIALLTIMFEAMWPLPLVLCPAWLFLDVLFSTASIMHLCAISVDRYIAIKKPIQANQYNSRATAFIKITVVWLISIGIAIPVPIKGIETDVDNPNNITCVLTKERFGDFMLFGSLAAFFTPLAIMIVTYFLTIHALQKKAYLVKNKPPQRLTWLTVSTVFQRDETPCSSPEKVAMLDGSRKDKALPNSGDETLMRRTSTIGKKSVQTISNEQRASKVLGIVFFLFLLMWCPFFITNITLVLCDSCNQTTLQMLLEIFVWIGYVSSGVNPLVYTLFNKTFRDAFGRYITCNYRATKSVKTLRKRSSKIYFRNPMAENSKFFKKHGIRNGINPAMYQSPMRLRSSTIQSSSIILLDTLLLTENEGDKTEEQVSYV
# [5] = molecular target: 3',5'-cyclic-AMP phosphodiesterase 4A (Homo sapiens, UniProt P27815); assay type: functional
# 3',5'-cyclic-AMP phosphodiesterase 4A, sequence (P27815 whole entry): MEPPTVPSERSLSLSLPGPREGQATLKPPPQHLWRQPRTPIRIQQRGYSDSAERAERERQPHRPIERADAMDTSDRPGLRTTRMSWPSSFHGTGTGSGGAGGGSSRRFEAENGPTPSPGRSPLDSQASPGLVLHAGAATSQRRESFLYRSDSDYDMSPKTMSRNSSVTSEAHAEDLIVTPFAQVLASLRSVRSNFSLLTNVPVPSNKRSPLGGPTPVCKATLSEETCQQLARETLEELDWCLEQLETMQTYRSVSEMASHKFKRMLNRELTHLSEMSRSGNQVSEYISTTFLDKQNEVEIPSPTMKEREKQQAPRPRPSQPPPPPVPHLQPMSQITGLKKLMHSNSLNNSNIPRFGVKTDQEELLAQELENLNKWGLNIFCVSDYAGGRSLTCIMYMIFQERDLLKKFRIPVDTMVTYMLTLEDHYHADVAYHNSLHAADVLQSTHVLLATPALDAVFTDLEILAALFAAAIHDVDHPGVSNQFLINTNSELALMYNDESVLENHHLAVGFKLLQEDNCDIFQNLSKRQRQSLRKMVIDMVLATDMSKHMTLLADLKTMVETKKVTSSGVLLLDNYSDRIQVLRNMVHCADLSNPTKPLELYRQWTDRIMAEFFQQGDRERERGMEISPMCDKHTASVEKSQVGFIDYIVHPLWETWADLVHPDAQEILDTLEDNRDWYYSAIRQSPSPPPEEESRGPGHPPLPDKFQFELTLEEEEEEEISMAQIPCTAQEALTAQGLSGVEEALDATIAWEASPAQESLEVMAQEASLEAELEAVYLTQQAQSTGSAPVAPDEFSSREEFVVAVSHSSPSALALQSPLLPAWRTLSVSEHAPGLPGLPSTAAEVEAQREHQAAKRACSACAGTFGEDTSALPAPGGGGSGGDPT
# Progesterone receptor = molecular target: T3, Progesterone receptor (Homo sapiens, UniProt P06401)
# T3 sequence (P06401 whole entry): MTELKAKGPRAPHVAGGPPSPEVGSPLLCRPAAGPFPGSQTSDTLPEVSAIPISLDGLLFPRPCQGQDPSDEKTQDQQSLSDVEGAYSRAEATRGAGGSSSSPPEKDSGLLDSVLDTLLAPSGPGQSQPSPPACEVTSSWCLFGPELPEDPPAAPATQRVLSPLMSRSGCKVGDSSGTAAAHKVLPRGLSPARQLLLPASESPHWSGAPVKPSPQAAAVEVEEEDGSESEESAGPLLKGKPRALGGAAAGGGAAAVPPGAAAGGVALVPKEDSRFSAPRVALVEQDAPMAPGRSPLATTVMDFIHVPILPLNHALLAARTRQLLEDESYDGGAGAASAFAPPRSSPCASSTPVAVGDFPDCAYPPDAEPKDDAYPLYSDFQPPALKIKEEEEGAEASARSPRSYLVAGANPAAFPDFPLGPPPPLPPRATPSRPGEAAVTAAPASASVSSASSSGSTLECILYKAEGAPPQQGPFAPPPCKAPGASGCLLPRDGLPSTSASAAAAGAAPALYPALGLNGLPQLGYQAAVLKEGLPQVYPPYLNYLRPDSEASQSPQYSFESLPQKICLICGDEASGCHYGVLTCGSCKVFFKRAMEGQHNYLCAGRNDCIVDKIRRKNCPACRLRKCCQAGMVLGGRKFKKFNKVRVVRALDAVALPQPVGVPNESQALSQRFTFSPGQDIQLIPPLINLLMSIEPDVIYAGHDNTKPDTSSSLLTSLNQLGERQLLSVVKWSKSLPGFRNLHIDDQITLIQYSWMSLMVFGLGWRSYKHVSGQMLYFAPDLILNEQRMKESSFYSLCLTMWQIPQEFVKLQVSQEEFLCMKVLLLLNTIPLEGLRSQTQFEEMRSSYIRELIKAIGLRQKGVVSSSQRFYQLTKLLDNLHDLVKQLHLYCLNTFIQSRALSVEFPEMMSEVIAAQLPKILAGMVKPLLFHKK
# [6] = molecular target: T4, 5-hydroxytryptamine receptor 1A (Homo sapiens, UniProt P08908)
# T4 sequence (P08908 whole entry): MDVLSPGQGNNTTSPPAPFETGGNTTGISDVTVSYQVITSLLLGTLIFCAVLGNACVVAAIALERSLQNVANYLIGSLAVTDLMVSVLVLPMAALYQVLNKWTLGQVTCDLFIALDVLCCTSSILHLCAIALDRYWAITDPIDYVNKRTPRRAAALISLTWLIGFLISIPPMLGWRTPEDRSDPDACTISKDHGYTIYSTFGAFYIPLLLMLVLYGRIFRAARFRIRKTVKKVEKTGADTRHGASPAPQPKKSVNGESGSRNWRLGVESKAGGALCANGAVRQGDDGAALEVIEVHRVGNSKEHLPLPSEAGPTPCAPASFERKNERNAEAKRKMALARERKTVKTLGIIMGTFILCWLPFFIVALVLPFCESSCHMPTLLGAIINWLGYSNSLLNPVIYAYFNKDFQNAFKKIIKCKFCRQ
# [7] = molecular target: Delta-type opioid receptor (Homo sapiens, UniProt P41143)
# Delta-type opioid receptor, sequence (P41143 whole entry): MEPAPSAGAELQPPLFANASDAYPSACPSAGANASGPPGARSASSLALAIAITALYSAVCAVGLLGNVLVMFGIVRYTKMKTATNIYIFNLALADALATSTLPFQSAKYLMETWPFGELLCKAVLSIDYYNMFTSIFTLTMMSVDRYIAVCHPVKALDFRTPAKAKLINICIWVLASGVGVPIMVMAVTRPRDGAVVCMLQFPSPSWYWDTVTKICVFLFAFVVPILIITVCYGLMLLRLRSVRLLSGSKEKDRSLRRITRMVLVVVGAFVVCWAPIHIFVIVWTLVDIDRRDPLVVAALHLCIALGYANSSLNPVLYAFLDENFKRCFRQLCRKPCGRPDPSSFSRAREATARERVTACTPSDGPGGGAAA
# [8] = molecular target: Gamma-aminobutyric acid receptor subunit alpha-1 (Rattus norvegicus, UniProt P62813)
# Gamma-aminobutyric acid receptor subunit alpha-1, sequence (P62813 whole entry): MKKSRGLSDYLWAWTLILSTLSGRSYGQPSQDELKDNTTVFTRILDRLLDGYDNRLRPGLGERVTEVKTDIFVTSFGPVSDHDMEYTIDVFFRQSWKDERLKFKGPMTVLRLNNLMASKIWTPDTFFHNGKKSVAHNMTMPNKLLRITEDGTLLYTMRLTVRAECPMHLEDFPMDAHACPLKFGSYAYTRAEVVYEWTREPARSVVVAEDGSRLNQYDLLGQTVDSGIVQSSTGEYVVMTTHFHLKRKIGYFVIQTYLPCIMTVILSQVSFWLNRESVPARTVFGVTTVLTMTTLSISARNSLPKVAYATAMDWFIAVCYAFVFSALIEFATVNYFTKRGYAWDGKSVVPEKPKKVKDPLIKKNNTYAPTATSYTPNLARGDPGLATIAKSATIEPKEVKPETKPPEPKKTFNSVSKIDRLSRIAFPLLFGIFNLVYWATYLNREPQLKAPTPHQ
# [9] = molecular target: Voltage-gated inwardly rectifying potassium channel KCNH2 (Homo sapiens, UniProt Q12809); assay type: functional; conditions: read-out: AC50
# Voltage-gated inwardly rectifying potassium channel KCNH2, sequence (Q12809 whole entry): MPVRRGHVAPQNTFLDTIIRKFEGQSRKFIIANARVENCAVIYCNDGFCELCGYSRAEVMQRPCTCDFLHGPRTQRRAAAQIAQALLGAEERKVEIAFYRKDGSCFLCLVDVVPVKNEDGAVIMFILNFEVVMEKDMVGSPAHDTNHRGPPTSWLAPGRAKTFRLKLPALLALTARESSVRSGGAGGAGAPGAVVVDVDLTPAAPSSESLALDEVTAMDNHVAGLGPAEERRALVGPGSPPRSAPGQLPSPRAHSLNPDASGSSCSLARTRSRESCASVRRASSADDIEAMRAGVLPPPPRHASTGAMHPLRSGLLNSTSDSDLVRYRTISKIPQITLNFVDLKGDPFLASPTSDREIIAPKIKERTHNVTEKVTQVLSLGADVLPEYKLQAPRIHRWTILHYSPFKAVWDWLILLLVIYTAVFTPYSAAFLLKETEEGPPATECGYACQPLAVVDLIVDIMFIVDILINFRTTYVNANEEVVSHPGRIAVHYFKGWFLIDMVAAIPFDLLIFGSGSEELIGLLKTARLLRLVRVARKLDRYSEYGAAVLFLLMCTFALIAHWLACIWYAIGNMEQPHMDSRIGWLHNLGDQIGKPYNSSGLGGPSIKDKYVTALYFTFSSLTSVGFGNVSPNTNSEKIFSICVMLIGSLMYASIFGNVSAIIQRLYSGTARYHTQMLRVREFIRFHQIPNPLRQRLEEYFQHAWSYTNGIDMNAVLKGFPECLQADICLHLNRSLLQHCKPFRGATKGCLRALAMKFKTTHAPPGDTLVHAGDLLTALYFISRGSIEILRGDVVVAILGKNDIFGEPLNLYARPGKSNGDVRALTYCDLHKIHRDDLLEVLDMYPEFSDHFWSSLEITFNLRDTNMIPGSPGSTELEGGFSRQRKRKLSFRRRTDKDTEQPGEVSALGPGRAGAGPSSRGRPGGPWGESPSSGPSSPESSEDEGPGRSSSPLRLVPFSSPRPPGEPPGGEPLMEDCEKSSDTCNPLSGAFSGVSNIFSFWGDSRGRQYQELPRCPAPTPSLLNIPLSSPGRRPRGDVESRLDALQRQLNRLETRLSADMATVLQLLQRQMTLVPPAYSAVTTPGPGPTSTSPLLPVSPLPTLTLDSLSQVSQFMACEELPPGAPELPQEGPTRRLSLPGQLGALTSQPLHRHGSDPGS
# Also: assay procedure not described here.
# Sodium-dependent dopamine transporter, sequence (Q01959 whole entry): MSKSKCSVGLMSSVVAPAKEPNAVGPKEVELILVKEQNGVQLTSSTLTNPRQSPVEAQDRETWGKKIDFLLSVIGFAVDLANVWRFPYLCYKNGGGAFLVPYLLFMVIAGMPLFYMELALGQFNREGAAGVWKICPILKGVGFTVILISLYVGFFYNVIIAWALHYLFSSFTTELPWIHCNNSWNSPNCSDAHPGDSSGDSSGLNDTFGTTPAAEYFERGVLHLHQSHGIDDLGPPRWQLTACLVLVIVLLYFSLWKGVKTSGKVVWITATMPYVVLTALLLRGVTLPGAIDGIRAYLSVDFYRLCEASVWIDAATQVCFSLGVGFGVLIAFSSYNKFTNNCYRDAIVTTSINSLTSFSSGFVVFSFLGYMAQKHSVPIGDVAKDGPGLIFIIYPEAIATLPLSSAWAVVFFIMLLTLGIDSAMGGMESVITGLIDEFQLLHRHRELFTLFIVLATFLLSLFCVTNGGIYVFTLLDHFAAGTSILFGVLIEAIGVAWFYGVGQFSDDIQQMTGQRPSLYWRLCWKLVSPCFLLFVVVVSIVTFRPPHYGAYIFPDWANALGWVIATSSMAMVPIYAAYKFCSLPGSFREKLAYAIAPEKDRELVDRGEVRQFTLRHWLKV
SMILES,AC50 [1],AC50 [2],AC50 (Prothrombin),AC50 [3],AC50 [4],AC50 [5],AC50 (Progesterone receptor),AC50 [6],AC50 [7],AC50 [8],AC50 [9]
CCCCCCCC(=O)N[C@H](CN1CCCC1)[C@H](O)c1ccc2c(c1)OCCO2,> 30 µM,> 30 µM,> 30 µM,> 30 µM,> 30 µM,> 30 µM,> 30 µM,14.3 µM,–,–,–
C[C@]12CC[C@H](O)CC1=CC[C@@H]1[C@@H]2CC[C@]2(C)C(c3cccnc3)=CC[C@@H]12 [ABIRATERONE],–,–,–,–,–,–,–,–,> 30 µM,> 10 µM,> 30 µM
CC(=O)OCC[N+](C)(C)C [ACETYLCHOLINE],> 30 µM,> 30 µM,> 30 µM,–,> 30 µM,> 30 µM,> 30 µM,> 30 µM,> 10 µM,> 10 µM,> 30 µM
CNC(=O)C[C@@H](N)C(=O)N[C@@H](C(=O)N[C@@H]1C(=O)N2[C@@H]1SC(C)(C)[C@@H]2C(=O)O)c1ccc(O)cc1 [ASPOXICILLIN],> 30 µM,> 30 µM,> 30 µM,> 30 µM,> 30 µM,> 30 µM,> 30 µM,> 30 µM,–,–,–
CN(C)C(=O)Oc1cc(OC(=O)N(C)C)cc(C(O)CNC(C)(C)C)c1 (stereo not given) [BAMBUTEROL],–,–,–,–,–,–,–,–,–,–,16 µM
C[C@H]1C[C@H]2[C@@H]3CCC4=CC(=O)C=C[C@]4(C)[C@@]3(Cl)[C@@H](O)C[C@]2(C)[C@@]1(O)C(=O)CO [BECLOMETHASONE],–,–,–,–,–,–,–,–,> 30 µM,> 10 µM,–
Cc1nnc(SCC2=C(C(=O)O)N3C(=O)[C@@H](NC(=O)Cn4cc(Cl)c(=O)c(Cl)c4)[C@H]3SC2)s1 [CEFAZEDONE],> 30 µM,> 30 µM,> 30 µM,> 30 µM,> 30 µM,28.1 µM,> 30 µM,> 30 µM,–,–,–
NS(=O)(=O)c1cc(C2(O)NC(=O)c3ccccc32)ccc1Cl (stereo not given) [CHLORTHALIDONE],–,–,–,–,–,–,–,–,–,> 10 µM,> 30 µM
O=C(O)CC(O)(CC(=O)O)C(=O)O [CITRIC ACID],> 30 µM,> 30 µM,> 30 µM,> 30 µM,> 30 µM,> 30 µM,> 30 µM,> 30 µM,–,–,–
C[C@@H]1C[C@H]2[C@@H]3C[C@H](F)C4=CC(=O)C=C[C@]4(C)[C@@]3(Cl)[C@@H](O)C[C@]2(C)[C@H]1C(=O)COC(=O)C(C)(C)C [CLOCORTOLONE PIVALATE],> 10 µM,> 30 µM,> 30 µM,> 10 µM,> 30 µM,> 30 µM,0.0118 µM,> 30 µM,–,–,–
O=P(O)(O)C(Cl)(Cl)P(=O)(O)O [CLODRONIC ACID],> 30 µM,> 30 µM,> 30 µM,> 30 µM,> 30 µM,> 30 µM,> 30 µM,> 30 µM,–,–,–
C[C@@H]1CCC[C@H](C)N1NC(=O)c1ccc(Cl)c(S(N)(=O)=O)c1 [CLOPAMIDE],–,–,–,–,–,–,–,–,> 30 µM,> 30 µM,> 30 µM
Nc1ccncc1 [DALFAMPRIDINE],> 30 µM,> 30 µM,> 30 µM,> 30 µM,> 30 µM,> 30 µM,> 30 µM,> 30 µM,–,–,–
COc1ccc2c(c1)[C@]13CCCC[C@@H]1[C@H](C2)N(C)CC3 [DEXTROMETHORPHAN],–,–,–,–,–,–,–,–,> 10 µM,> 10 µM,21.1 µM
O=c1oc2ccccc2c(O)c1Cc1c(O)c2ccccc2oc1=O [DICUMAROL],–,–,–,–,–,–,–,–,> 30 µM,> 10 µM,> 30 µM
O=C(O)CSCC(=O)NC1CCSC1=O (stereo not given) [ERDOSTEINE],–,–,–,–,–,–,–,–,> 30 µM,> 30 µM,> 30 µM
COc1cccc(N(C)C(=S)Oc2ccc3c(c2)CCCC3)n1 [LIRANAFTATE],–,–,–,–,–,–,–,–,> 30 µM,> 30 µM,> 30 µM
C#C[C@]1(O)CC[C@H]2[C@@H]3CCc4cc(OC)ccc4[C@H]3CC[C@@]21C [MESTRANOL],–,–,–,–,–,–,–,–,> 30 µM,> 10 µM,> 30 µM
N=C(N)c1ccc2cc(OC(=O)c3ccc(N=C(N)N)cc3)ccc2c1 [NAFAMOSTAT],–,–,–,–,–,–,–,–,–,3.5 µM,3.3 µM
N[C@@H](Cc1c[nH]c2ccc(O)cc12)C(=O)O [OXITRIPTAN],> 30 µM,> 30 µM,> 30 µM,> 30 µM,10.1 µM,> 30 µM,> 30 µM,–,–,–,> 30 µM
O=C(O)c1cc(O)c2c3nc4ccccc4oc-3cc(=O)c2n1 [PIRENOXINE],–,–,–,–,–,–,–,–,2.2 µM,> 30 µM,> 30 µM
NS(=O)(=O)c1cc(C(=O)O)cc(N2CCCC2)c1Oc1ccccc1 [PIRETANIDE],–,–,–,–,–,–,–,–,> 30 µM,> 30 µM,> 30 µM
CNCCCC1c2ccccc2C=Cc2ccccc21 [PROTRIPTYLINE],–,–,–,–,–,–,–,–,> 30 µM,> 10 µM,1 µM
CC(C)=CCOc1ccc(/C=C/C(=O)c2ccc(OCC=C(C)C)cc2OCC(=O)O)cc1 [SOFALCONE],–,–,–,–,–,–,–,–,26 µM,> 30 µM,> 30 µM
O=C(CCCN1CCC2(CC1)C(=O)NCN2c1ccccc1)c1ccc(F)cc1 [SPIPERONE],–,–,–,–,–,–,–,–,–,> 30 µM,0.22 µM
CCOC(=O)[C@H](CCc1ccccc1)N[C@H]1CS[C@H](c2cccs2)CN(CC(=O)O)C1=O [TEMOCAPRIL],> 30 µM,> 30 µM,> 30 µM,> 30 µM,> 30 µM,> 10 µM,–,> 30 µM,–,–,> 30 µM
CN(C)c1cc(NC(=O)CNC(C)(C)C)c(O)c2c1C[C@H]1C[C@H]3[C@H](N(C)C)C(O)=C(C(N)=O)C(=O)[C@@]3(O)C(O)=C1C2=O [TIGECYCLINE],–,–,–,–,–,–,–,–,> 30 µM,> 30 µM,> 30 µM
OCCN1CCN(CC/C=C2/c3ccccc3Sc3ccc(Cl)cc32)CC1 [ZUCLOPENTHIXOL],–,–,–,–,–,–,–,–,> 30 µM,> 10 µM,0.9 µM
